Consider one compound from article PMC7844219, “Antifibrotic effect of novel neutrophil gelatinase-associated lipocalin inhibitors in cardiac and renal disease models” (Scientific Reports, 2021).

The target in series [1] is T1, hNGAL (Homo sapiens, UniProt P80188).
T1 construct: purchased R&D Systems
Kind of series: hNGAL-induced intracellular profibrotic protein levels in human cardiac fibroblasts (Western blot). Type of series: cell-based. Also on record: % inhibition versus hNGAL on Col I protein level / % inhibition versus hNGAL on Col III protein level / % inhibition versus hNGAL on Fibronectin protein level / % inhibition versus hNGAL on Galectin 3 protein level: concentration or dose not given beside the values. On the procedure:
(§1) Primary human cardiac fibroblasts (HCF) were obtained from Promocell (Heidelberg, Germany) and maintained in Fibroblast Media 3 following manufacturer’s instructions (Promocell). Cells were used between passages 5 and 7. Cells were stimulated with recombinant hNGAL (500 ng/mL, R&D Systems) or with TGFβ (10 ng/mL, R&D Systems) for 24 h. To assess cell proliferation the MTT test was used following provider’s instructions (Roche). For protein analysis. Primary Mouse Kidney Fibroblasts (MKF) were isolated from Wild Type (WT) mice. Briefly, 8 weeks old mice were sacrificed by cervical dislocation and kidneys were cleaned and rinsed in cold DPBS (Dulbecco's Phosphate-Buffered Saline). The renal cortex was minced and incubated in Dulbecco’s modified eagle medium/Nutrient mixture F-12 (DMEM/F12, Sigma) containing 1 mg/mL collagenase A (Roche) during 25 min at 37 °C. The digestion was inactivated by adding culture medium (DMEM/F12 + 10% FBS) then the cell suspension was passed through a 100-μm cell strainer. After centrifugation, the pellet (containing MKF) was diluted with culture medium then plated in 75 cm^2 culture flask. After 24 h MKF were washed with DPBS before replacement of fresh culture medium. Thereafter, culture medium was changed every 48 h. Once 70–80% confluent, MKF were trypsinized and plated in 12 or 6-well plates. For experimental use, MKF were starved with culture medium containing only 3% FBS. MKF were treated with mNGAL (500 ng/mL, R&D Systems) or with TGFβ (10 ng/mL, R&D Systems) for 6 h for gene expression analysis.
Total protein aliquots of 20 μg were prepared from cardiac homogenates and HCF and electrophoresed on SDS polyacrylamide gels and transferred to Hybond-c Extra nitrocellulose membranes (Amersham Biosciences). Membranes were incubated with primary antibodies for: Collagen I (Santa Cruz; dilution 1:500), Collagen type III (Santa Cruz; dilution 1:500), fibronectin (Millipore, 1:500), Galectin-3 (Thermo, 1:1000), α-SMA (Sigma, 1:1000), CTGF (Santa Cruz, 1:200), CD68 (Abcam, 1:500), CD80 (Santa Cruz, 1:500), CD86 (Santa Cruz, 1:500). […] After densitometric analyses, optical density values were expressed as arbitrary units. Results are expressed as an n-fold increase over the values of the control group in densitometric arbitrary units.

Series [2] has as its target T1, hNGAL. Kind of series: Cell proliferation (MTT) in hNGAL-treated human cardiac fibroblasts. The class given is cell-based. On the procedure: as §1
Cell proliferation was assessed using the MTT Proliferation Assay (Sigma).

Another series deals with T2, mNGAL (Mus musculus, UniProt P11672).
T2 construct: purchased R&D Systems
T2 sequence (P11672 21-200): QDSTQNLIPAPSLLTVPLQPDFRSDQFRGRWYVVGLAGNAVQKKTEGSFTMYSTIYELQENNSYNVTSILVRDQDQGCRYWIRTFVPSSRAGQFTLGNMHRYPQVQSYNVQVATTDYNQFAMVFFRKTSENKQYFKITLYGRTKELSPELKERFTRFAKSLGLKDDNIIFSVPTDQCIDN
Nature of the series: mNGAL-induced gene expression in primary mouse kidney fibroblasts (RT-PCR). The class given is cell-based. On the procedure: as §1
Frozen tissues (kidneys, heart) were homogenized in TRIzol (Life Technologies, Illinois, USA) using FastPrep beads (MP-Bio, CA, USA). cDNAs were generated using the Superscript II reverse transcriptase kit (Invitrogen,NY, USA), and qPCR was performed as previously described. Briefly, transcript levels were analysed in a CFX396 apparatus (Biorad). The reactions were performed in duplicate for each sample using the IQ SYBR Green supermix Kit (Biorad,CA, USA). […]

For another series, the target named is T3, hERG channel (Homo sapiens, UniProt Q12809).
T3 construct: purchased Thermo Fisher Scientific
T3 sequence (Q12809 whole entry): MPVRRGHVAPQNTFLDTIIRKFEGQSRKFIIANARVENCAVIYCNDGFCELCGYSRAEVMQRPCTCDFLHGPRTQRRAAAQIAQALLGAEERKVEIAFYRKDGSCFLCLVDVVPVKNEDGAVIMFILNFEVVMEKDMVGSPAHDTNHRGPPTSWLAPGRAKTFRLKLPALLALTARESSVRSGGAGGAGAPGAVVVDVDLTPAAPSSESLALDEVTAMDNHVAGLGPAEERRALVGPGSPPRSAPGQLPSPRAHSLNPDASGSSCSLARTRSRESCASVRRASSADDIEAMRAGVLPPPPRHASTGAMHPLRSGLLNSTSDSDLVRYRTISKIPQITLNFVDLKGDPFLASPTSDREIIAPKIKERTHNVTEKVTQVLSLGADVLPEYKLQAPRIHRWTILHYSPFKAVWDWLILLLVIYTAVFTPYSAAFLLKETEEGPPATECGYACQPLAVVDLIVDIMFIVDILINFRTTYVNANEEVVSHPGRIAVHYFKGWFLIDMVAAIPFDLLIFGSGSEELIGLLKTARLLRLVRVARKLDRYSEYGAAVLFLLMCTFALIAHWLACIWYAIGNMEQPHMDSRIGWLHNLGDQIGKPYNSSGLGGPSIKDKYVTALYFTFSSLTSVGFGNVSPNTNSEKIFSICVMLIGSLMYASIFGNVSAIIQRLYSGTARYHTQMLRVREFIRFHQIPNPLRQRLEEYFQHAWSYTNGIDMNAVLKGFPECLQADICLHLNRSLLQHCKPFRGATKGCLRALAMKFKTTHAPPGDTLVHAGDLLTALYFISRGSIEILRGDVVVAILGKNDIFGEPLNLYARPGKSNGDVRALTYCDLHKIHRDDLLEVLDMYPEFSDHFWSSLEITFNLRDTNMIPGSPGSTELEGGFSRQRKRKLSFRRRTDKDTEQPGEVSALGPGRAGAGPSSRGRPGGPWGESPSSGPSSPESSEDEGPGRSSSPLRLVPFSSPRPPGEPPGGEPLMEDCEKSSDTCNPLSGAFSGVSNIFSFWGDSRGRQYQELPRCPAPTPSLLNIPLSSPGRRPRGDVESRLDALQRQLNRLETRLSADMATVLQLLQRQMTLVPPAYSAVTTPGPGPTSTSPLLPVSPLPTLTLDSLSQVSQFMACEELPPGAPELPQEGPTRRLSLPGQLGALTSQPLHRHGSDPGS
Kind of series: Cardiotoxicity, Predictor hERG fluorescence polarization kit. Type of series: binding. On the procedure:
(§2) Several parameters have been evaluated to determine ADME-Tox profile of the compounds. Two specific toxicity assays have been performed to assess hepatoxicity and cardiotoxicity. Hepatotoxicity was evaluated in isolated hepatocytes from swiss mice and determined by the thiazolyl blue tetrazolium bromide colorimetric assay (sigma, St Louis, MO, USA). Cardiotoxicity was evaluated using the commercially available Predictor hERG fluorescence polarization kit (Thermo Fisher Scientific, Illinois, USA). Several absorption, distribution, metabolism, and excretion (ADME) assays have been carried out. The following experiments were undertaken: stability in human microsomes, binding to human plasma protein, and CYP3A4 inhibition assay (Vivid CYP3A4 assay, Thermo Fisher Scientific, Illinois, USA). Physico-chemical properties were also assessed such as aqueous solubility and chemical stability.

The next series is described as follows: Aqueous solubility. The class given is physicochemical. The protocol: as §2
Setting [3] is: Table S2, human cardiac fibroblasts.

T1 sequence (P80188 21-198): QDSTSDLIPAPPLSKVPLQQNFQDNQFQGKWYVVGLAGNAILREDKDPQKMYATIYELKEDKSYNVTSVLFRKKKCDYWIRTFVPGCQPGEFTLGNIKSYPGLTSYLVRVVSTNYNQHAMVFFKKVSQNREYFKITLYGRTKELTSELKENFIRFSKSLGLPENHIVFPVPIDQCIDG

`CC(=O)c1cccc(S(=O)(=O)NCc2ccccc2-n2cccn2)c1` [GPZ614741]: the “hNGAL-induced expression of intracellular profibrotic proteins (Col I, Col III, fibronectin, Gal3), in words” value on hNGAL [1] (10 µM, human cardiac fibroblasts, Fig. 1D) is listed as “blocked”. The “Col III synthesis (protein level)” value on hNGAL [1] (Table S2, hNGAL-treated human cardiac fibroblasts, Control 1.0, NGAL 1.67, mean ± SEM) is listed as 1.05 ± 0.1. Besides, the “Fibronectin synthesis (protein level)” value on hNGAL [1] (Table S2, hNGAL-treated human cardiac fibroblasts, Control 1.0, NGAL 1.8, mean ± SEM) is given as 0.95 ± 0.2. Also, the “Col I synthesis (protein level)” value at hNGAL [1] (Table S2, hNGAL-treated human cardiac fibroblasts, Control 1.0, NGAL 2.03, mean ± SEM) is 1.09 ± 0.2. Also, the “Galectin-3 synthesis (protein level)” value on hNGAL [1] (Table S2, hNGAL-treated human cardiac fibroblasts, Control 1.0, NGAL 2.1, mean ± SEM) is listed as 1.3 ± 0.1. Moreover, at hNGAL [1] (setting [3]), the “% inhibition versus hNGAL on Col I protein level” value was found to be 46.4%, the “% inhibition versus hNGAL on Col III protein level” value came to 37.1%, the “% inhibition versus hNGAL on Fibronectin protein level” value stood at 47.2% and the “% inhibition versus hNGAL on Galectin 3 protein level” value is on record as 38.1%. Moreover, at hNGAL [2] (10 µM, Fig. 1E), the “hNGAL-induced cell proliferation, in words” value is reported as “blocked”. For the same compound, on hNGAL [2] (Fig. S2), the “Dose–response on proliferation induced by NGAL” value was “able to block the proliferative effects of NGAL at 1 and 10 µM, but not at lower concentrations”. Besides, the “NGAL-induced collagen I expression” value at mNGAL (1 µM, mouse kidney fibroblasts, Fig. S4) is recorded as “prevented”. Moreover, the “mNGAL-induced expression of profibrotic markers (Col I, fibronectin, αSMA)” value at mNGAL (10 µM, MKF, mRNA, Fig. 3A) was “inhibited”. The “mNGAL-induced expression of inflammatory markers (IL6, MCP1)” value on mNGAL (10 µM, MKF, mRNA, Fig. 3B) is “inhibited”. Also, the “Cardiotoxicity (hERG predictor assay), in words” value on hERG channel is listed as “nontoxic”. For the same compound, the “Cardiotoxicity % (100= no toxicity)” value on hERG channel (Table S5, hERG predictor assay) was 101.76 ± 2.48%. Besides, in “Aqueous solubility”, the “Solubility in aqueous buffers, in words” value is “perfectly soluble”. The Aquous solubility % in the series “Aqueous solubility” (Table S5) was determined as 100%.
